# Reference: patent US20160263258A1, “Radiotracer introduced [18F]fluoromethyl group targeting neuroinflammation for PET imaging and Synthesis of Radiotracer and its biological evaluation Method for Radiotracer” (Bio Imaging Korea Co., Ltd., priority 2013, published 2016)
# Key:
# TSPO = target: T1, TSPO (Rattus norvegicus, UniProt P16257); assay: Selective/specific PET imaging: inhibition image by co-injection with the radiotracer; type: in vivo
# T1 construct: from tissue; host or cells: brain of living LPS-injected Sprague-Dawley rats (PET imaging)
# Protocol: (§1) To construct a neuroinflammation rat model, male Sprague-Dawley rats with a weight of 200-250 g were used. Each of the rats was anesthetized, and the cranium was exposed and then drilled with a bone drill to form a small hole. Thereafter, 50 μg of LPS (lipopolysaccharide) was injected into the rat body by a Hamilton syringe at a flow rate of […] (AP, 0.8 mm; L, −2.7 mm; and P, −5.0 mm from the bregma). LPS was maintained for 10 minutes to prevent LPS from flowing backward in the Hamilton syringe, and then the small hole of the cranium was filled with wax and the incised scalp was closed.
# [1] = pH 7.4
# Protocol: For the measurement of lipophilicity, each of the [^18F]fluoromethyl group-introduced radiotracer and [^11C]PBR28 (about 0.74 MBq) in 5% ethanol/saline was added to and mixed with n-octanol (5 mL) and sodium phosphate buffer (5.0 mL, 0.15 M, pH 7.4), and then lipophilicity was measured four times. The radioactivity of the sample (100 μL) in each sample was measured, and the lipophilicity was calculated as the ratio of counts per minute to sodium phosphate buffer and n-octanol.
# [2] = tested on: LPS-induced brain neuroinflammation rat model; assay: PET imaging in LPS-induced brain neuroinflammation rat model; type: in vivo; details: for time of uptake (faster uptake): PET time-activity, after injection; for accumulation in LPS-injected inflammatory region versus contralateral region: PET, tail vein injection, 4 days after LPS
# Protocol: as §1
# At 4 days after LPS injection into five rats (227.98±3.8 g), positron emission tomography (PET) images were acquired. The rats were subjected to PET imaging for 120 minutes after injection of [^11C]PBR28 or the [^18F]fluoromethyl group-introduced radiotracer into the tail vein of the neuroinflammation model. First, a [^11C]PBR28 image was acquired from the neuroinflammation model, and after six-half lives ([…]) when the remaining radioactivity disappeared, an image of the [^18F]fluoromethyl group-introduced radiotracer was acquired.
# [3] = Metabolism of radiotracer in brain of neuroinflammation model rats (HPLC); type: in vivo, rat
# Protocol: The [^18F]fluoromethyl group-introduced radiotracer (about 37 MBq, 5% ethanol/saline) was injected into the vein of the neuroinflammation model rats through the tail vein. After 30 and 60 minutes, the rats were sacrificed, and brain samples were collected therefrom, after which the metabolism of the fluorine-18-labeled radiotracer was measured by HPLC. As a result, the amount of the [^18F]fluoromethyl group-introduced radiotracer in the rat brain was 97.3% 30 minutes after injection and 96.8% 60 minutes after injection. Other radioactive metabolites, excluding 2-3% fluorine-18, were not observed in HPLC up to 60 minutes after injection. In contrast, according to previous studies, it is known that, in the case of [^11C]PBR28, radioactive metabolites exist in an amount of about 10-15%, thereby giving false images.
# [4] = background art; cited from earlier work
# [5] = according to previous studies; cited from earlier work
smiles,measurement,setting,value
CCOC(=O)c1ncn2c1CN(C)C(=O)c1cc(F)ccc1-2 [Flumazenil],influence on uptake of the fluorine-18-labeled radiotracer in the inflammatory region,"TSPO; 5 mg/kg injected simultaneously with the [18F] radiotracer, CBR ligand",did not influence the uptake
CC(=O)N(Cc1ccccc1OC[18F])c1cnccc1Oc1ccccc1 [N-(2-[^18F]fluoromethoxybenzyl)-N-(4-phenoxypyridin-3-yl)acetamide],lipophilicity,[1],2.85±0.02
same,time of uptake (faster uptake),[2],4.5 min
same,accumulation in LPS-injected inflammatory region versus contralateral region,[2],more selectively accumulated in the LPS-injected inflammatory region than the contralateral region
same,"uptake, times higher","[2]; for about 2 hours, p=0.009",at least 3.0 times
same,amount of radiotracer in the rat brain,[3]; 30 minutes after injection,97.3%
same,amount of radiotracer in the rat brain,[3]; 60 minutes after injection,96.8%
same,fluorine-18 (radioactive metabolite) in brain,[3]; up to 60 minutes after injection,2-3%
CCC(C)N(C)C(=O)c1cc2ccccc2c(-c2ccccc2Cl)n1 (stereo not drawn) [PK11195],inhibition of radiotracer uptake in the inflammatory region,TSPO; 10 mg/kg injected simultaneously with the [18F] radiotracer,about 66%
COc1ccc(OC)c(CN(C(C)=O)c2cc(F)ccc2Oc2ccccc2)c1 [[^11C]DAA1106],uptake relative to [11C]-(R)-PK11195,[4],at least 4 times
"CC(=O)N(Cc1ccccc1O[11CH3])c1ccc(Oc2ccccc2)nc1 [[^11C]PBR28, N-acetyl-N-(2-[^11C]methoxybenzyl)-2-phenoxy-5-pyridinamine]",lipophilicity,[1],3.01±0.01
same,time of uptake (faster uptake),[2],20 min
same,accumulation in LPS-injected inflammatory region versus contralateral region,[2],more selectively accumulated in the LPS-injected inflammatory region than the contralateral region
same,inflammatory region/contralateral region ratio,[2]; at 90 min,3.4 times
same,"radioactive metabolites, amount",[5],10-15%
